Reference: ChEMBL document CHEMBL1133957, “A selective inhibitor of Escherichia coli prephenate dehydratase” (Bioorg Med Chem Lett, 2001)
Activity calls are given as the source filed them. The rule behind the calls is not given here.

Key:
[1] = Inhibitory activity against chorismate mutase; design: species or system Escherichia coli
[2] = Inhibitory activity against (PDT22) Prephenate dehydratase; design: species or system Escherichia coli
[3] = system: Escherichia coli; experiment: Inhibitory activity against chorismate mutase at 500 uM; No inhibition
[4] = system: Escherichia coli; experiment: Inhibitory activity against (PDT22) Prephenate dehydratase at 500 uM; No inhibition
[5] = system: Escherichia coli; experiment: Inhibitory activity against chorismate mutase; No inhibition
[6] = system: Escherichia coli; experiment: Inhibitory activity against (PDT22) Prephenate dehydratase at 500 uM
[7] = Inhibitory activity against Chorismate mutase; design: species or system Escherichia coli

| SMILES | IC50 [1] | IC50 [2] | further results |
| --- | --- | --- | --- |
| O=C(O)c1cccc([N+](=O)[O-])c1-c1c(C(=O)O)cccc1[N+](=O)[O-] | 50 µM | 600 µM | – |
| O=C(O)c1ccc([N+](=O)[O-])c(-c2c(C(=O)O)cccc2[N+](=O)[O-])c1 | 1350 µM | 550 µM | – |
| O=C(O)c1ccc([N+](=O)[O-])cc1-c1c(C(=O)O)cccc1[N+](=O)[O-] | 1150 µM | 750 µM | – |
| O=C(O)c1cccc([N+](=O)[O-])c1-c1cccc(F)c1C(=O)O | 600 µM | 2250 µM | – |
| O=C(O)c1ccccc1-c1ccccc1C(=O)O | – | – | inhibition [3]: inactive; inhibition [4]: inactive |
| COc1cccc(C(=O)O)c1-c1c(C(=O)O)cccc1[N+](=O)[O-] | 800 µM | 3000 µM | – |
| O=C(O)c1cccc(C(=O)O)c1-c1c(C(=O)O)cccc1[N+](=O)[O-] | 450 µM | 1700 µM | – |
| COc1cccc(C(=O)O)c1-c1ccccc1C(=O)O | – | 4000 µM | – |
| CC(=O)Nc1cccc(C(=O)O)c1-c1c(NC(C)=O)cccc1C(=O)O | – | – | inhibition [5]: inactive; inhibition [4]: inactive |
| O=C(O)c1cc(O)c(O)cc1-c1c(C(=O)O)cccc1[N+](=O)[O-] | 1000 µM | – | inhibition [6]: < 25% |
| Cc1cccc(C(=O)O)c1-c1c(C(=O)O)cccc1[N+](=O)[O-] | 730 µM | 1300 µM | – |
| O=C(O)c1ccccc1-c1c(C(=O)O)cccc1[N+](=O)[O-] | 280 µM | 1900 µM | – |
| O=C(O)c1ccccc1-c1c(O)cccc1C(=O)O | 1000 µM | 2900 µM | – |
| O=C(O)c1cc(O)ccc1-c1c(C(=O)O)cccc1[N+](=O)[O-] | 350 µM | 950 µM | – |
| O=C(O)c1cc(C(=O)O)c(-c2ccccc2[N+](=O)[O-])c(C(=O)O)c1 | – | 1850 µM | IC50 [7]: 3000 µM |
